The source made the active and inactive calls. No cut-off for these calls is given here.
What was measured:
[1] = Intrinsic clearance in mouse liver microsomes; format: ADME, Microsome; details: read-out: CLH
[2] = test system: BaF3; assay: Antiproliferative activity against mouse KIF5B-RET BaF3 cells by cell based assay; format: functional
[3] = Intrinsic clearance in human liver microsomes; format: ADME, Microsome; details: read-out: CLH
[4] = Clearance in mouse; format: ADME, organism-based; details: in vivo
[5] = Volume of distribution in mouse; format: ADME, organism-based; details: in vivo
[6] = Toxicity in mouse transplanted with mouse KIF5B-RET Ba/F3 cells assessed as change in body weight at 10 mg/kg, po […] for 10 days relative to control; format: organism-based, BaF3; details: in vivo, 240 h, time 10 day
[7] = Drug level in plasma of mouse transplanted with mouse KIF5B-RET Ba/F3 cells at 10 mg/kg, po qd for 10 days measured after 8.5 hrs; format: ADME, organism-based, BaF3; details: time 10 day
[8] = Drug level in tumor of mouse transplanted with mouse KIF5B-RET Ba/F3 cells at 10 mg/kg, po qd for 10 days measured after 8.5 hrs; format: ADME, organism-based, Neoplasm, BaF3; details: in vivo, 240 h, time 10 day
[9] = AUC in mouse plasma at 10 mg/kg, po; format: ADME, organism-based; design: dose 10 mg/kg
[10] = molecular target: T1, Receptor-type tyrosine-protein kinase FLT3 (Homo sapiens, UniProt P36888); assay: Inhibition of FLT3 (unknown origin)
T1 sequence (P36888 whole entry): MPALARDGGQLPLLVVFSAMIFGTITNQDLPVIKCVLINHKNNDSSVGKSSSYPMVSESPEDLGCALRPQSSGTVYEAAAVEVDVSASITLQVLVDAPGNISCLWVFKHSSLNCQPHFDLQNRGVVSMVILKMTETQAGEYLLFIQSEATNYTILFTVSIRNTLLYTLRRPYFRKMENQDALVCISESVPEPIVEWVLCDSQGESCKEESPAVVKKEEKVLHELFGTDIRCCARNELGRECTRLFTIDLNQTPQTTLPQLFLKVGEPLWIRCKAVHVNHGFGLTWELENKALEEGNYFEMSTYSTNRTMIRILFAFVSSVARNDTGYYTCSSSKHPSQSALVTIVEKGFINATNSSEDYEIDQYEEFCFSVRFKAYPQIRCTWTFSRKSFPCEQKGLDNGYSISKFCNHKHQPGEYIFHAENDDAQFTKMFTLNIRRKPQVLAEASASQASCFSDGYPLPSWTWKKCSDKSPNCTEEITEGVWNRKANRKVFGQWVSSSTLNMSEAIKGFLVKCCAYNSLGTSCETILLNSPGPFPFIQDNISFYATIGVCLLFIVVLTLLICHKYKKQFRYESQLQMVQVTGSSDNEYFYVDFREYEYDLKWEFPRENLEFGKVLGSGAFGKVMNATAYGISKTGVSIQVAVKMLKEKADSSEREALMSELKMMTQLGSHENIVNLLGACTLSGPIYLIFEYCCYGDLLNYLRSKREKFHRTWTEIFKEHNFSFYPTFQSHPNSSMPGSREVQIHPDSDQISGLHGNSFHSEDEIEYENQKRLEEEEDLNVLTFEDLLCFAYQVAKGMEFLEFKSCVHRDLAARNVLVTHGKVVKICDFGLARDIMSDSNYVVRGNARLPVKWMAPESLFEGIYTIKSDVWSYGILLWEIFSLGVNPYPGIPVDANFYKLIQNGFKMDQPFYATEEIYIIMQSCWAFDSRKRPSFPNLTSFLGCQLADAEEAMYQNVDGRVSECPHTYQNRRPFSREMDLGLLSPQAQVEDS

[11] = molecular target: Tyrosine-protein kinase JAK2 (Homo sapiens, UniProt O60674); assay: Inhibition of JAK2 (unknown origin)
Sequence of Tyrosine-protein kinase JAK2 (O60674 whole entry): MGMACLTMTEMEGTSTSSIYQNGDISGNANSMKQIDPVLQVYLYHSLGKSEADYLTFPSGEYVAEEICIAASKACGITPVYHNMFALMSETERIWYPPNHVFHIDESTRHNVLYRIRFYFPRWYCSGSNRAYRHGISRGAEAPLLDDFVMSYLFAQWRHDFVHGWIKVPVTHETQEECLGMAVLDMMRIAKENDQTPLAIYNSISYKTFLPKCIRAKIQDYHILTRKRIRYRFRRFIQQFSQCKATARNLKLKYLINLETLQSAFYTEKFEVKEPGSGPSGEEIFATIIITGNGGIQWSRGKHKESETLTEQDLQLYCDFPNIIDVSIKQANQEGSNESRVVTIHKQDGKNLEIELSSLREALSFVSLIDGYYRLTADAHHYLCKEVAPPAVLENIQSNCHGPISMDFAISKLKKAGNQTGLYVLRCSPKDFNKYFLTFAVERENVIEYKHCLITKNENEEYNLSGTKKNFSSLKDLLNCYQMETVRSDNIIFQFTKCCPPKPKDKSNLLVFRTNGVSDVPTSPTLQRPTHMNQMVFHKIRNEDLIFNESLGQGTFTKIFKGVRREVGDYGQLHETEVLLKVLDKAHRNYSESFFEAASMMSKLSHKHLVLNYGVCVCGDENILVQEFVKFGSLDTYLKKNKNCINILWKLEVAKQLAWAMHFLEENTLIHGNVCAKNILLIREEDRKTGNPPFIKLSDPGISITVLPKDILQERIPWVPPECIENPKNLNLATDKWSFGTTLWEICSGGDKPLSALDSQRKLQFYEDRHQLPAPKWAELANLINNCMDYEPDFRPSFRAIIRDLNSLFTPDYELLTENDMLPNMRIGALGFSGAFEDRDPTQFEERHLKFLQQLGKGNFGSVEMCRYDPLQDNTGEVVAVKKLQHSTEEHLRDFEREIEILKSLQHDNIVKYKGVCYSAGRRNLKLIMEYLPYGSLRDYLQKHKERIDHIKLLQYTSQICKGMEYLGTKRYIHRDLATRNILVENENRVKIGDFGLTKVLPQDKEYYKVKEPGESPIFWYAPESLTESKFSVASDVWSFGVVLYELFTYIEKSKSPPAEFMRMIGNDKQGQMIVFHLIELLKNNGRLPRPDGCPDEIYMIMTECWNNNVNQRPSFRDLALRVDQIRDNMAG

[12] = test system: BaF3; assay: Antitumor activity against mouse KIF5B-RET BaF3 cells xenografted in nu/nu mouse assessed as tumour growth inhibition at 10 mg/kg, po qd for 10 days; format: functional, organism-based; details: time 10.0 day
[13] = Oral bioavailability in mouse; format: ADME, organism-based; details: in vivo
[14] = molecular target: Proto-oncogene tyrosine-protein kinase receptor Ret (Homo sapiens, UniProt P07949); assay: Inhibition of RET wild type (unknown origin)
Sequence of Proto-oncogene tyrosine-protein kinase receptor Ret (Homo sapiens, UniProt P07949) (P07949 whole entry): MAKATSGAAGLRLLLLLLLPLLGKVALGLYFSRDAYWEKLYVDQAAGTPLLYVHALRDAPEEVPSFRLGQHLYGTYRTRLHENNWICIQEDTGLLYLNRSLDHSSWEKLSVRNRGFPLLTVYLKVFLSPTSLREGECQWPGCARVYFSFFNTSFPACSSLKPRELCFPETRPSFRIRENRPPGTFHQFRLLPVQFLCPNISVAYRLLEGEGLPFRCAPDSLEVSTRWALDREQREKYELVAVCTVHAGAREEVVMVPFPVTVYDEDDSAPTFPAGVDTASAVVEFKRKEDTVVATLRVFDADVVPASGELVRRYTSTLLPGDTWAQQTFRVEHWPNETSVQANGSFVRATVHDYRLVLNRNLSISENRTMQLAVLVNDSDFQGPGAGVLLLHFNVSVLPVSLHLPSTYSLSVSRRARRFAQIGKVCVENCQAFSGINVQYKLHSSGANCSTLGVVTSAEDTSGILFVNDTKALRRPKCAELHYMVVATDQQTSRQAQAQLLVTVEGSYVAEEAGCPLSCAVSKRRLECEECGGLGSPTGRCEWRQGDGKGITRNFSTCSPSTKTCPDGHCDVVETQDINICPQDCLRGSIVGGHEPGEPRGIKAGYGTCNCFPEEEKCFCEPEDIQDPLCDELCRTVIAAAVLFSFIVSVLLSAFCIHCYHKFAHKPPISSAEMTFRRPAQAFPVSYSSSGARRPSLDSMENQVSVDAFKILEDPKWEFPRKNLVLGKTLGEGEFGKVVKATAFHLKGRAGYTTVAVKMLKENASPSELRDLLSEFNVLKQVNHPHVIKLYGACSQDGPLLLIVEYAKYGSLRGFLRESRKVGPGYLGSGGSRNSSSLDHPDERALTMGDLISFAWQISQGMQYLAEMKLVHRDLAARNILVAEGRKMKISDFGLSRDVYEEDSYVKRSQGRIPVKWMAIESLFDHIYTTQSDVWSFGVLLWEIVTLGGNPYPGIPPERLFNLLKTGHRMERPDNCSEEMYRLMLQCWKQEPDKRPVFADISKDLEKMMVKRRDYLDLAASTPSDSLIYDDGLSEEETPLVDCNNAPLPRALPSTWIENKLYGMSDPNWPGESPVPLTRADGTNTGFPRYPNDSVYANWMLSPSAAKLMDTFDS

[15] = molecular target: Proto-oncogene tyrosine-protein kinase receptor Ret (Homo sapiens, UniProt P07949, V804M); assay: Inhibition of RET V804M mutant (unknown origin)
Sequence of Proto-oncogene tyrosine-protein kinase receptor Ret (Homo sapiens, UniProt P07949, V804M) (P07949 29-1114 V804M limits assumed): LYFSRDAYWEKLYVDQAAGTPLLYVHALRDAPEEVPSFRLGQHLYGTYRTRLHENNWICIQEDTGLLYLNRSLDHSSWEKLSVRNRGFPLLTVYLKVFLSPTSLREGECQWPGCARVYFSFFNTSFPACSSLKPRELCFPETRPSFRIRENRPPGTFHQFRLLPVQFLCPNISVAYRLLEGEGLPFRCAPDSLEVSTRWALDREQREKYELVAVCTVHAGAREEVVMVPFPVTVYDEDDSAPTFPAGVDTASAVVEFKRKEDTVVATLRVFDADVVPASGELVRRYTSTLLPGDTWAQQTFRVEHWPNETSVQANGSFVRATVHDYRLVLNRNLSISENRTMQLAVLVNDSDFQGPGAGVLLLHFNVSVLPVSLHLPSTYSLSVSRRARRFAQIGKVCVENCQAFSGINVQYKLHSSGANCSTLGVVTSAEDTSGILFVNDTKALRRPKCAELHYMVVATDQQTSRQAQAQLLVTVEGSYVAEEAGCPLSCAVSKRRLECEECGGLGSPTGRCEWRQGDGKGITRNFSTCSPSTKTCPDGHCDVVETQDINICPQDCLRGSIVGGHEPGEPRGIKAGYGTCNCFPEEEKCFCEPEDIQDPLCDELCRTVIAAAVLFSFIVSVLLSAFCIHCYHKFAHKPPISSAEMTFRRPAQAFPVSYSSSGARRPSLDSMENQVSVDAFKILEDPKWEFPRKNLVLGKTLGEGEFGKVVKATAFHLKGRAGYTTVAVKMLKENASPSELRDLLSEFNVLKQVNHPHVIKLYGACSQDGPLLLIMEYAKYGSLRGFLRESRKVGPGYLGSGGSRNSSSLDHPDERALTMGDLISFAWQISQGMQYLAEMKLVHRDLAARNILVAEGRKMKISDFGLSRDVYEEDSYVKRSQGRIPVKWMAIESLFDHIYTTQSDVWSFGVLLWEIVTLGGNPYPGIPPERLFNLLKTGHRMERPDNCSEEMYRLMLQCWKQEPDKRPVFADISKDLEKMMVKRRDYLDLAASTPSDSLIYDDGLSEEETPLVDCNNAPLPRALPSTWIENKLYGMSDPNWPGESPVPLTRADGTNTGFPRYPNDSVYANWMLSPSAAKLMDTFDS

[16] = Toxicity in mouse transplanted with mouse KIF5B-RET Ba/F3 cells assessed as change in body weight at 20 mg/kg, po […] for 10 days relative to control; format: organism-based, BaF3; details: in vivo, 240 h, time 10 day
[17] = molecular target: Proto-oncogene tyrosine-protein kinase receptor Ret (Homo sapiens, UniProt P07949, M918T); assay: Inhibition of RET M918T mutant (unknown origin)
Sequence of Proto-oncogene tyrosine-protein kinase receptor Ret (Homo sapiens, UniProt P07949, M918T) (P07949 29-1114 M918T limits assumed): as the sequence (P07949 29-1114 V804M limits assumed) above, with M776V, M890T counted along it

[18] = test system: BaF3; assay: Antitumor activity against mouse KIF5B-RET BaF3 cells xenografted in nu/nu mouse assessed as tumour growth inhibition at 20 mg/kg, po qd for 10 days; format: functional, organism-based; details: time 10.0 day

Cc1cc(Nc2cc(C)[nH]n2)nc(N2CCC3(CCCN([C@@H](C)c4cnc(-n5cc(F)cn5)cn4)C3=O)CC2)n1
CLint scaled [1]: 136 mL/min/kg
IC50 [2]: 19 nM
CLint scaled [3]: 31.3 mL/min/kg

CO[C@]1(C(=O)N[C@@H](C)c2ccc(-n3cc(F)cn3)nc2)CC[C@H](c2nc(C)cc(Nc3cc(C)[nH]n3)n2)CC1 [PRALSETINIB]
clearance [4]: 5 mL/min/kg
Vd [5]: 0.7 L/kg
Activity [6]: Non-Toxic
concentration at 240 h [7]: 6.32 µM
Drug uptake [8]: 2522 nmol/kg
CLint scaled [1]: < 38 mL/min/kg
AUC [9]: 46.1 µM·h
IC50 [10]: 6.5 nM
IC50 [11]: 2 nM
IC50 [2]: 17 nM
CLint scaled [3]: < 8.6 mL/min/kg
Activity [12]: Active
bioavailability [13]: 77.2%

Cc1cc(Nc2cc(C)[nH]n2)nc(N2CCC3(CC2)OCCN([C@@H](C)c2ccc(-n4cc(F)cn4)nc2)C3=O)n1
clearance [4]: 6.6 mL/min/kg
Vd [5]: 1.5 L/kg
Activity [6]: Non-Toxic
IC50 [14]: 1.29 nM
concentration at 240 h [7]: 3.94 µM
Drug uptake [8]: 8100 nmol/kg
IC50 [15]: 1.97 nM
CLint scaled [1]: 79 mL/min/kg
AUC [9]: 27.7 µM·h
IC50 [10]: 30.8 nM
IC50 [11]: 4.4 nM
Activity [16]: Non-Toxic
IC50 [2]: 19 nM
CLint scaled [3]: 24.1 mL/min/kg
Activity [12]: Active
IC50 [17]: 0.9 nM
Activity [18]: Active
bioavailability [13]: 59.7%

Cc1cc(Nc2cc(C)[nH]n2)nc(N2CCC3(CCCN([C@@H](C)c4ccc(-n5cc(F)cn5)nc4)C3=O)CC2)n1
CLint scaled [1]: 155 mL/min/kg
IC50 [2]: 14 nM
CLint scaled [3]: 36.4 mL/min/kg

Cc1cc(Nc2cc(C)[nH]n2)nc(C2CCC3(CCCN([C@@H](C)c4ccc(-n5cc(F)cn5)nc4)C3=O)CC2)n1 (some centres undefined)
CLint scaled [1]: < 38 mL/min/kg
CLint scaled [3]: < 8.6 mL/min/kg

Reference: ChEMBL document CHEMBL4834457, “Discovery and optimization of selective RET inhibitors via scaffold hopping” (Bioorg Med Chem Lett, 2021)
